Laboratory results: patent US20250134104A1, “AGROCHEMICAL ADJUVANTS” (Croda International Plc, priority 2022, published 2025)

System: Botrytis cinerea (ATCC 90479)
Test: Botrytis cinerea hyphal growth inhibition on PDA agar (colony diameter), adjuvant with or without pyraclostrobin
Format: cell-based
Conditions: for inherent fungicidal activity on their own: adjuvant alone, at any of the concentrations tested; for Fold Change in Growth Inhibition: adjuvant concentration 50 μg/mL (Ia-Ie) or 64 μg/mL (If, Ig), 48 hours at 22° C., relative to fungicide alone; for fold increase in fungicidal activity compared to pyraclostrobin alone: pyraclostrobin at 0.06 μg/mL, against B. cinerea
Experimental: Percent Inhibition-The percent inhibition will be understood to represent the amount the fungicide and/or adjuvant that inhibits the visible growth of the microorganism after 48 hours incubation at 22° C. relative to vehicle treated controls. This is calculated using the following formula:
ØC=diameter of the colony grown on agar supplemented with vehicle (i.e. vehicle treated control), and
ØT=diameter of the colony grown on agar supplemented with fungicide and/or adjuvant formulated in an appropriate vehicle (i.e., solvent such as water C2H5OH, CH3OH, CH3CN, DMSO).
Fold Change—The fold change is a measure of the adjuvant/fungicide combination in inhibiting a microorganism compared to the fungicide alone. This indicates how the adjuvant performs relative to the fungicide alone. This is calculated using the following formula:
where: • INHAF=percent inhibition of fungal growth when treated with fungicide and adjuvant, and • INHF=percent inhibition of fungal growth when treated with fungicide alone.
Botrytis cinerea (ATCC 90479) was cultured on Difco Potato Dextrose Agar (PDA) for 7 days with diurnal UV cycles (12 h UV light and 12 h dark). Spores were harvested in a buffered, sterile saline solution (w/v: 0.9% NaCl with 1% Tween 80) and counted using a haemocytometer. The spore suspension was adjusted to a final concentration of 8.5x10^6 spores/mL to create a standardised inoculum.
To prepare hyphal fragments for adjuvant testing, 8.5x10^4 spores were used to inoculate 10 mL of Difco Potato Dextrose Broth in a 150×25 mm tube. The tube was incubated at 220 RPM, 22° C. for 48 hours.
To create hyphal fragments from the culture, the culture was transferred to a 50 mL plastic conical tube containing approximately 20 sterile 5 mm diameter glass beads and vortexed for 5 min. After vortexing the tube was allowed to stand for 5 min to allow large mycelial clumps to settle and then the top layer containing hyphal fragments was removed and used as inocula for growth inhibition assays.
Fungicides and adjuvants were dissolved in methanol and added to molten PDA (˜50° C.) and then the agar was distributed in the wells of 12 well multiwell plates (1 mL/well). The plates were cooled to room temperature and 10 μL of hyphal inoculum was added to the centre of each well. The plates were incubated at 22° C. for 48 hours and then the colony diameter was measured using a digital caliper. The biological growth control consisted of hyphae and vehicle (0.07% methanol), the negative control was media and vehicle (0.07% methanol).

[1] = with Pyra (pyraclostrobin) 0.0313 μg/mL
[2] = with Pyra (pyraclostrobin) 0.0625 μg/mL

Row | SMILES | inherent fungicidal activity on their own | Fold Change in Growth Inhibition [1] | Fold Change in Growth Inhibition [2] | fold increase in fungicidal activity compared to pyraclostrobin alone [fold]
1 | O=C1NC(Cc2ccccc2)C(=O)N2CCC=C12 (centres unmarked) [DKP (Ig), cyclo (-Phe-dhPro) diketopiperazine] | did not demonstrate any inherent fungicidal activity | 1.22 | 1.27 | 
2 | CN1CC(=O)N(C)C(Cc2ccccc2)C1=O (centres unmarked) [DKP (Id)] | did not demonstrate any inherent fungicidal activity | 1.09 | 1.35 | 
3 | O=C1CNC(=O)C(Cc2ccccc2)N1 (centres unmarked) [DKP (Ib)] | did not demonstrate any inherent fungicidal activity | 1.14 | 1.45 | 
4 | CN1C(=O)C2CCCN2C(=O)C1Cc1ccccc1 (centres unmarked) [DKP (Ic)] | did not demonstrate any inherent fungicidal activity | 1.23 | 1.52 | 1.52
5 | O=C1NC(Cc2ccccc2)C(=O)N2CCCCC12 (centres unmarked) [DKP (If), cyclo (-Phe-Pip) diketopiperazine] | did not demonstrate any inherent fungicidal activity | 1.34 | 1.28 | 
6 | O=C1NCC(=O)N2CCCC12 (centres unmarked) [DKP (Ie)] | did not demonstrate any inherent fungicidal activity | 0.96 | 1.56 | 1.56
7 | O=C1NC(Cc2ccccc2)C(=O)N2CCCC12 (centres unmarked) [DKP (Ia)] | did not demonstrate any inherent fungicidal activity | 1.32 | 1.15 | 
